Test results from patent publication US20140228302A1, “COMPOUNDS, COMPOSITIONS AND METHODS FOR TREATING OR PREVENTING HYPOXIC OR ISCHEMIC INJURY” (FRED HUTCHINSON CANCER RESEARCH CENTER, priority 2010, published 2014).
In brackets after ≈: the same amount, converted by molar mass. Entries after “also recorded” stand apart in the source; their conditions may differ. Where two headings read alike, the source gives them in different places.

Legend:
[1] = Comparative solubility data (Table 1); type: physicochemical
Text: (§1) This allows formulation in aqueous solution at high concentration, which is important for preparing parenteral dosage forms.

[2] = Comparative vehicle data (Table 2); type: physicochemical
Text: as §1

mouse = conditions: cited from earlier work
rat = conditions: cited from earlier work
dog = conditions: cited from earlier work
mammals = conditions: many mammals; cited from earlier work
[3] = Generation of biologically available sulfide in whole rat blood and inhibition by NAEM; type: in vitro ADME
Protocol: The chemical nature of biologically available sulfide in blood was probed with the thiol-reactive reagent N-aminoethyl-maleimide (NAEM) which binds to free thiols and perthiols on proteins and blocks them from participating further in thiol-mediated chemical reactions. Biologically available sulfide was generated in blood by adding 1.3 mM bis-N-acetyl-cystine-trisulfide to 2 mL of whole rat blood. Biologically available sulfide was measured by derivatization with mono-bromo-bimane and levels of bis-N-acetyl-cystine-trisulfide in blood were followed by LC/MS/MS.

[4] = tested on: livers of mice, injury by dGal/LPS; test: Protection from endotoxin (dGal/LPS)-induced liver damage; type: in vivo, C57BL/6 mice
Protocol: Male C57BL/6 mice, (22 to 24 g, Charles River Laboratories) were acclimated in a temperature and humidity controlled environment for 1-3 days prior to commencement of the experimental procedures. All cages were placed on water heating pads set at 30° C. Liver injury was caused by injecting mice intraperitoneally with 800 mg/kg d-Galactosamine (dGal), followed 30 min later by 100 μg/kg lipopolysaccharide (LPS) (FIG. 4) or with 1000 mg/kg dGal, followed 30 min later by 120 μg/kg LPS (FIG. 5). Bis-N-acetyl-cystine-trisulfide at 20 mg/kg (FIG. 4) or 40 and 60 mg/kg (FIG. 5), or vehicle were injected intraperitoneally 30 min later. Blood was collected by cardiac puncture under isoflurane anesthesia five hours after LPS injection. Serum was prepared and markers of liver injury, alanine aminotransferase (ALT) and aspartate aminotransferase (AST) measured.

[5] = tested on: livers of mice, ischemia/reperfusion (I/R) injury; test: Protection from ischemia/reperfusion-induced liver damage; type: in vivo, C57BL/6 mice; conditions: last 5 min of 45 min occlusion, ALT five hours after reperfusion
Protocol: C57BL/6 mice were anesthetized with a ketamine/xylazine combination given via intraperitoneal injection. A midline laparotomy was performed to expose the viscera and the stomach and intestines were moved laterally to allow for unimpeded visualization of the liver. A micoaneurysm clip was applied to the hepatic artery and portal vein to create a partial liver ischemia encompassing the medial and left lateral lobes (approximately 70% of the liver). […] The aneurysm clips were removed at 45 minutes to restore hepatic blood flow which was confirmed visually. The abdominal incision was closed using wound clips and animals were recovered in a warmed chamber with 100% oxygen. Five hours after reperfusion, blood was collected by cardiac puncture to measure serum alanine aminotransferase (ALT).

[6] = Free sulfide in blood measured with sulfide-specific electrode in vena cava; type: in vivo, CD rats; conditions: rat, 20 mg/kg IV over 1 min, monitored 30 min
Text: Male CD rats (350-450 g, Charles River Laboratories) were anesthetized by IV pentobarbital injection and the right jugular vein carefully exposed and dissected away from the surrounding tissue. An amperometric hydrogen sulfide sensor (World Precision Instruments, Sarasota, Fla., Cat. #ISO-H2S-2) was inserted into the jugular and advanced into the vena cava. Sensor current was monitored using a Powerlab 8/30 (ADInstruments, Colorado Springs, Colo.). Once a stable baseline current was attained, the animals received either vehicle (pH matched saline) or bis-N-acetyl-cystine-trisulfide (20 mg/kg) administered over 1 min via a left femoral vein catheter, and sensor current was monitored over 30 min. Changes in current were calibrated against an IK-1001 standard curve generated with the sensor in deoxygenated 50 mM HEPES, 150 mM NaCl, 1 mM DTPA at 37° C. and pH 7.4.

[7] = Maximum tolerated dose, intravenous injection; conditions: mouse, in vivo; mice, intravenous injections
Text: The absence of free sulfide is reflected in the low toxicity of the sulfide-releasing compounds.

[8] = Stability of the dosing solution; type: physicochemical; conditions: 30 mg/mL dosing solution
Protocol: In one more exemplary embodiment of the methods of making the pharmaceutical compositions of the invention, a dosing solution of bis-N-acetyl-cystine-trisulfide at 30 mg/mL is prepared by weighing the desired amount of solid bis-N-acetyl-cystine-trisulfide into a clear glass vial and chilling the vial to −20° C. The solvent is prepared by chilling a suitable amount of a mixture of 1 volumes of 0.5N NaOH in saline and 2 volumes of above vehicle solution to between 0° C. and 4° C. One mL of this solvent is added to the vial per 30 mg of bis-N-acetyl-cystine-trisulfide contained and the resulting suspension mixed immediately until the solid is fully dissolved. This dosing solution of bis-N-acetyl-cystine-trisulfide is stable for at least 1.5 hours at room temperature and for at least 24 hours when frozen at −20° C. The dosing solution is warmed to room temperature prior to intravenous injection.
Method: Vehicle solution was prepared by mixing 1 volume of solution B, 4 volumes of solution A, and 36 volumes of saline. The pH of the resulting vehicle solution is about 6. To prepare a bis-N-acetyl-cysteine-trisulfide dosing solution at a concentration of 30 mg/ml and about pH 6, the appropriate amount of bis-N-acetyl-cystine-trisulfide was weighed into a clear glass vial and cooled to −20° C. Solutions B and A were mixed at a 1:2 volume ratio, vortexed, and cooled to 4° C. on ice. […]

[9] = Pharmacokinetics of biologically available blood sulfide and plasma thiosulfate after intravenous administration; type: in vivo, Sprague Dawley rats; conditions: rat, IV bolus 16 or 32 mg/kg
Protocol: Pharmacokinetic experiments were conducted with groups of two to four animals consisting of 9-10 week old, male Sprague Dawley rats, 276-300 grams (Charles River Laboratories, Wilmington, Mass.) with a jugular vein catheter and a femoral vein catheter. Animals were allowed to acclimate in a temperature and humidity controlled environment for 1-3 days prior to the commencement of experimental procedures. Food and water were provided ad libitum.
A baseline blood sample (˜0.4 mL) was collected from each rat through the jugular vein cannula into a heparin-coated syringe (1 mL volume) fitted with a 23G Luer stub adapter. After sampling, the blood volume was replenished by slowly injecting 0.4 mL of a solution of 50 u/mL heparin in saline through the jugular vein cannula.

[10] = 17% HPBCD, aqueous with cosolvent or surfactant or cyclodextrin, read-out: Solubility 17% HPBCD
[11] = 20% PEG400, aqueous with cosolvent or surfactant or cyclodextrin, read-out: Solubility 20% PEG400
[12] = water, read-out: Solubility Water
[13] = rat blood pretreated with 20 mM NAEM for 30 min

OCCSSSSCc1ccccc1
solubility [1, 10]: > 6000 µg/mL | solubility [1, 11]: 110 µg/mL (≈ 416 µM) | solubility [1, 12]: 37 µg/mL (≈ 140 µM)

c1ccc(CCSSSCc2cccnc2)cc1
solubility [1, 11]: 310 µg/mL (≈ 1060 µM) | solubility [1, 12]: 220 µg/mL (≈ 750 µM)

COC(=O)[C@H](CSSSCc1ccccc1)NC(C)=O
solubility [1, 11]: 240 µg/mL (≈ 724 µM) | solubility [1, 12]: 100 µg/mL (≈ 302 µM)

OCC(O)CSSSSCc1ccccc1 (stereo not shown)
solubility [1, 10]: 6600 µg/mL (≈ 22400 µM) | solubility [1, 11]: 230 µg/mL (≈ 781 µM) | solubility [1, 12]: 150 µg/mL (≈ 509 µM)

O=C(O)CCSSSCCC(=O)O
solubility ([1]; aqueous with cosolvent or surfactant or cyclodextrin, 45% HPBCD (stated in the cell of the 17% HPBCD column), read-out: Solubility 45% HPBCD): > 20000 µg/mL | Solubility Water ([1]; water): poor

CC(=O)N[C@@H](CSSSCCc1ccccc1)C(=O)O
solubility [1, 10]: 18000 µg/mL (≈ 54300 µM) | Solubility Water ([1]; water): poor

N[C@@H](CSSSC[C@H](N)C(=O)O)C(=O)O
Solubility in words ([1]; water, 90% PEG400, 45% HPBCD, 45% Captisol, 2% Tween 80, 25% cremophor): Not soluble in water, 90% PEG400, 45% HPBCD, 45% Captisol, 2% Tween 80, 25% cremophor

C=CCSSCC=C [Di-allyl di-sulfide]
Preferred Vehicle [2]: 40% HPBCD/0.1% citric acid

CC(=O)N[C@@H](CS)C(=O)O [N-acetyl-cysteine]
LD50 IV (mouse): 3,800 mg/kg | LD50 IV (rat): 1,140 mg/kg | LD50 IV (dog): 700 mg/kg | intravenous LD50 (mammals): ≥ 300 mg/kg

NCCN1C(=O)C=CC1=O [NAEM, N-aminoethyl-maleimide]
Time until consumed in blood ([3]; 20 mM NAEM, preincubation with rat blood): ≤ 1 min | Effect on consumption of bis-N-acetyl-cystine-trisulfide [3, 13]: reduced consumption | Effect on production of biologically available sulfide [3, 13]: almost completely blocked | Effect on production of biologically available sulfide ([3]; rat blood pretreated with 20 mM NAEM for 30 min, listed as N-aminoethyl-maleimide (NAEM)): reduces the generation of biologically available sulfide

CC(=O)N[C@@H](CSSSC[C@H](NC(C)=O)C(=O)O)C(=O)O [bis-N-acetyl-cystine-trisulfide, (R,R′)-3,3′-trithiobis-2-acetamidopropanoic acid]
Liver injury (serum ALT and AST) ([4]; 20 mg/kg IP bolus 30 min after LPS, 800 mg/kg dGal, 100 μg/kg LPS, vs vehicle): reduced liver injury | Endotoxin-induced liver injury (ALT, AST) ([4]; 20, 40 and 60 mg/kg IP, blood five hours after LPS (FIGS. 4 and 5)): protected from endotoxin-induced liver injury | Liver injury (serum ALT) ([4]; 40 and 60 mg/kg IP bolus 30 min after LPS, 1000 mg/kg dGal, 120 μg/kg LPS, vs vehicle): reduced liver injury | Liver ischemia/reperfusion injury (ALT) ([5]; intravenous bolus 5, 20 or 60 mg/kg): protection of the livers; also recorded: protected the liver from ischemia/reperfusion injury | Free sulfide in blood [6]: No free sulfide was detectable; also recorded: does not lead to any measurable increase | MTD [7]: ~500 mg/kg | Preferred Vehicle [2]: aqueous | Water solubility compared to other polysulfides ([1]; water): unexpectedly high water solubility | Stability of dosing solution at room temperature ([8]; about pH 6, room temperature): at least 1.5 hours | Stability of dosing solution frozen ([8]; frozen at −20° C.): at least 24 hours | Time until consumed in blood ([3]; 1.3 mM in 2 mL whole rat blood, LC/MS/MS): ≤ 5 min | Generation of biologically available sulfide in blood ([3]; 1.3 mM in whole rat blood, mono-bromo-bimane derivatization): generating biologically available sulfide | Plasma thiosulfate ([9]; ion chromatography): paralleled blood levels of biologically available sulfide; also recorded: elevation of plasma thiosulfate | Biologically available sulfide in blood ([9]; mono-bromo-bimane derivatization): dose-dependent elevation

CS(=O)(=O)N[C@@H](CSSSC[C@H](NS(C)(=O)=O)C(=O)O)C(=O)O [bis-N-methylsulfonyl-cystine-trisulfide, (R,R′)-3,3′-trithiobis-2-(methylsulfonylamido)propanoic acid]
Liver ischemia/reperfusion injury (ALT) ([5]; intravenous bolus 2, 5 or 20 mg/kg): protected the liver from ischemia/reperfusion injury | Liver ischemia/reperfusion injury (ALT) ([5]; intravenous bolus 2, 5 or 20 mg/kg, listed as bis-N-methylsulfonamide-cystine-trisulfide): protection of the livers | Water solubility compared to other polysulfides ([1]; water): unexpectedly high water solubility

CC(=O)N[C@@H](CSSSC[C@H](NC(C)=O)C(=O)O)C(=O)O [drawing 49]
solubility [1, 12]: > 40000 µg/mL

CS(=O)(=O)N[C@@H](CSSSC[C@H](NS(C)(=O)=O)C(=O)O)C(=O)O [drawing 50]
solubility [1, 12]: > 80000 µg/mL
